Source: US20240108634A1, “COMPOSITIONS AND METHODS FOR INHIBITING YAP” (The United States Government as represented by the …, priority 2021, published 2024)

What was measured:
[1] = Toxicity in treated mice (weight, blood cell counts, ALT, AST, creatinine); format: in vivo
From the text: Data are expressed as percent of control mice that received vehicle and assigned 100%.
Materials and Methods. Cell culture, vectors and reagents. Normal mature human neurons were obtained from ScienCell (Carlsbad, CA). Lines were routinely tested to confirm the absence of mycoplasma and authenticated by short tandem repeat profiling (ATCC). The myc-tagged TEAD (pRK5-Myc-TEAD1) and HA-tagged YAP1 (pCl-HA-YAP) vectors were used for mammalian expression and TEAD was subcloned into pGEX-2TK, while YAP was subcloned into pET-14b for bacterial expression and purification. DNA transfections were performed using Effectene transfection reagent according to the manufacturer (QIAGEN) and lentiviral transductions were performed as previously described (Rosenbluh J, et al. (2012) Cell 151: 1457-1473). Large-scale syntheses of NSC682769 was performed by New England Discovery Partners, Branford, CT. The other reagents including kits for ALT, AST and creatinine level determinations were from Sigma-Aldrich.
NSC682769 inhibits GBM tumor growth in xenografted mice. To examine the effects of NSC682769 in vivo, the ability of the compound to inhibit the growth of LN229 xenografted tumors implanted subcutaneously in SCID mice was tested. Following implantation, when tumors reached ˜200 mm^3, mice were randomized into treatment groups receiving vehicle, 5 mg/kg/d and 20 mg/kg/d of NSC682769. […]

[2] = biological target: T1, YAP1 (residues 50-171) / TEAD1 (residues 194-411) association (Homo sapiens, UniProt P46937); assay: In vitro GST pull-down of His-tagged YAP1 with GST-TEAD1; format: binding; conditions: concentration-dependent
T1 construct: His; made in house
T1 sequence (P46937 50-171): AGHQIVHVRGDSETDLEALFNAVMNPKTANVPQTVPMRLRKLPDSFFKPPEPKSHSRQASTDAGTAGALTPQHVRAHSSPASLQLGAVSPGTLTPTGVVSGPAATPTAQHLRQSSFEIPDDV
Protocol: FIGS. 1A-G show the identification of a YAP1-TEAD1 binding interface inhibitor. […] The Gal4 DBD was fused to residues 50-171 of human YAP1 and the Gal4 AD was fused to residues 194-411 of human TEAD1. These fusions were expressed in yeast containing reporters harboring Gal4 upstream activating sequences (UAS). […] Yeast expressing either p53-DBD and SV40 large T antigen-AD fusions or YAP1-DBD and TEAD1-AD fusions were plated on selective media. Compounds were pinned onto the plate surfaces by robotic transfer and subsequently examined for halo formation (indicated by red circles). […] Pull-down products were analyzed by SDS-PAGE and silver staining. […] Raw binding sensorgrams obtained at each concentration were fitted to a 1:1 binding model and Kon, Koff and KD were calculated by simultaneous non-linear regression analyses.
Results. […] To examine the mechanism by which NSC682769 inhibits YAP, the ability of full-length human YAP1 to bind to NSC682769 cross-linked affinity beads prepared using a photo-cross-linking procedure (Holmes B, et al. (2016) J Biol Chem 291: 14146-14159) was determined. Recombinant YAP was incubated with control, IRES-J007 (negative control), or NSC682769-coupled beads and binding analyzed by immunoblotting for YAP (FIG. 1F). […]

For `COc1ccc(-c2cc(-c3ccccc3)nc3c2CC(=O)Nc2ccccc2-3)cc1OC` [NSC682769], the “Overt toxicity or weight loss” value ([1]; 5 and 20 mg/kg/d) was “No overt short or long-term toxicity or weight loss”, the “Blood cell counts, serum ALT, AST, creatinine” value ([1]; daily IP, 5 days, 5 or 20 mg/kg/d) was “neither blood cell counts nor serum alanine aminotransferase (ALT), aspartate aminotransferase (AST) or creatinine levels were affected” and the “Inhibition of His-tagged YAP1 and GST-TEAD1 association” value [2] was “marked inhibition”.
